From ChEMBL document CHEMBL4152321, “Synthesis and antiplasmodial activity of glyco-conjugate hybrids of phenylhydrazono-indolinones and glycosylated 1,2,3-triazolyl-methyl-indoline-2,3-diones” (Eur J Med Chem, 2018)
pIC50: −log10 of the molar value.

Experiments:
[1] = Cytotoxicity against African green monkey Vero cells after 3 days by resazurin dye based fluorescence assay; type: cell-based; details: chlorocebus sabaeus
[2] = system: Plasmodium falciparum; assay: Antiplasmodial activity against chloroquine-sensitive Plasmodium falciparum 3D7 infected in human erythrocytes after 72 hrs by SYBR Green 1 staining based fluorescence assay; type: functional, organism-based; details: 3D7, 72 h
[3] = system: Plasmodium falciparum; assay: Antiplasmodial activity against chloroquine-resistant Plasmodium falciparum K1 infected in human erythrocytes after 72 hrs by SYBR Green 1 staining based fluorescence assay; type: functional, organism-based; details: K1, 72 h
[4] = Selectivity index, ratio of CC50 for African green monkey Vero cells to IC50 for chloroquine-resistant Plasmodium falciparum K1 infected in human erythrocytes; type: toxicity, cell-based; details: read-out: Ratio CC50/IC50
[5] = Selectivity index, ratio of CC50 for African green monkey Vero cells to IC50 for chloroquine-sensitive Plasmodium falciparum 3D7 infected in human erythrocytes; type: toxicity, cell-based; details: read-out: Ratio CC50/IC50

SMILES	CC50 at 72 h [1] [µM]	pIC50 [2]	pIC50 [3]	selectivity ratio [4]	selectivity ratio [5]
CC(=O)C[C@H]1O[C@@H](On2cc(CN3C(=O)/C(=N\Nc4ccc(C#N)cc4)c4ccccc43)nn2)[C@H](OC(C)=O)[C@@H](OC(C)=O)[C@H]1OC(C)=O	75.5	5.44	5.37	17.6	20.6
CC1(C)O[C@H]2O[C@H](Cn3cc(CN4C(=O)/C(=N\Nc5ccccc5)c5ccccc54)nn3)[C@H](O)[C@H]2O1	82.1	5.33	5.33	17.6	17.6
CC(=O)C[C@H]1O[C@@H](On2cc(CN3C(=O)/C(=N\Nc4ccc(F)cc4)c4ccccc43)nn2)[C@H](OC(C)=O)[C@@H](OC(C)=O)[C@@H]1OC(C)=O	68.7	5.65	5.42	18.1	30.5
CC1(C)O[C@H]2[C@@H](O1)[C@@H](Cn1cc(CN3C(=O)/C(=N\Nc4ccc(C#N)cc4)c4ccccc43)nn1)O[C@@H]1OC(C)(C)O[C@@H]12	126	5.44	5.56		34.9
N#Cc1ccc(N/N=C2\C(=O)N(Cc3cn(O[C@@H]4O[C@H](CO)[C@@H](O)[C@H](O)[C@H]4O)nn3)c3ccccc32)cc1		5.11	5.15		
CC(=O)C[C@H]1O[C@@H](On2cc(CN3C(=O)/C(=N\Nc4cccc(Cl)c4)c4ccccc43)nn2)[C@H](OC(C)=O)[C@@H](OC(C)=O)[C@H]1OC(C)=O	87.9	5.61	5.71	45.5	35.6
CC(=O)C[C@H]1O[C@@H](On2cc(CN3C(=O)C(=O)c4ccccc43)nn2)[C@H](OC(C)=O)[C@@H](OC(C)=O)[C@H]1OC(C)=O		5.08	5.09		
COc1ccc(N/N=C2\C(=O)N(Cc3cn(O[C@@H]4O[C@H](CC(C)=O)[C@@H](OC(C)=O)[C@H](OC(C)=O)[C@H]4OC(C)=O)nn3)c3ccccc32)cc1	95.3	5.52	5.38	23.1	31.2
O=C1/C(=N\Nc2ccccc2)c2ccccc2N1Cc1cn(O[C@@H]2O[C@H](CO)[C@H](O)[C@H](O)[C@H]2O)nn1	83.4	5.32	5.06	9.6	17.4
CC1(C)O[C@H]2[C@@H](O1)[C@@H](Cn1cc(CN3C(=O)C(=O)c4ccccc43)nn1)O[C@@H]1OC(C)(C)O[C@@H]12		5.08	5.12		
CC(=O)C[C@H]1O[C@@H](On2cc(CN3C(=O)/C(=N\Nc4ccccc4)c4ccccc43)nn2)[C@H](OC(C)=O)[C@@H](OC(C)=O)[C@H]1OC(C)=O	65.2	5.46	5.38	15.8	18.6
CC1(C)O[C@H]2O[C@H](Cn3cc(CN4C(=O)/C(=N\Nc5ccc(C#N)cc5)c5ccccc54)nn3)[C@H](O)[C@H]2O1	105	5.32	5.47	30.8	21.8
O=C1/C(=N\Nc2ccc(Br)cc2)c2ccccc2N1Cc1cn(O[C@@H]2O[C@H](CO)[C@@H](O)[C@H](O)[C@H]2O)nn1		5.03	5.10		
CC1(C)O[C@H]2[C@@H](O1)[C@@H](Cn1cc(CN3C(=O)/C(=N\Nc4ccc(Br)cc4)c4ccccc43)nn1)O[C@@H]1OC(C)(C)O[C@@H]12	119	5.71	5.79	73.9	60.7
CC1(C)O[C@H]2O[C@H](Cn3cc(CN4C(=O)/C(=N\Nc5ccc(F)cc5)c5ccccc54)nn3)[C@H](O)[C@H]2O1	83.8	5.51	5.40	21	21.2
O=C1/C(=N\Nc2ccc(F)cc2)c2ccccc2N1Cc1cn(O[C@@H]2O[C@H](CO)[C@@H](O)[C@H](O)[C@H]2O)nn1		5.10	5.07		
CC(=O)C[C@H]1O[C@@H](On2cc(CN3C(=O)/C(=N\Nc4ccccc4)c4ccccc43)nn2)[C@H](OC(C)=O)[C@@H](OC(C)=O)[C@@H]1OC(C)=O	108	5.43	5.15	15.1	28.9
COc1ccc(N/N=C2\C(=O)N(Cc3cn(O[C@@H]4O[C@H](CC(C)=O)[C@H](OC(C)=O)[C@H](OC(C)=O)[C@H]4OC(C)=O)nn3)c3ccccc32)cc1	62.5	5.90	5.51	20	49.2
CC1(C)O[C@H]2O[C@H](Cn3cc(CN4C(=O)/C(=N\Nc5ccc(Br)cc5)c5ccccc54)nn3)[C@H](O)[C@H]2O1	72.9	5.39	5.45	20.7	18

SMILES	CC50 at 72 h [1] [µM]	pIC50 [2]	pIC50 [3]	selectivity ratio [4]	selectivity ratio [5]
CC1(C)O[C@H]2[C@@H](O1)[C@@H](Cn1cc(CN3C(=O)/C(=N\Nc4ccc(F)cc4)c4ccccc43)nn1)O[C@@H]1OC(C)(C)O[C@@H]12	122	5.51	5.58	46.4	39.9
COc1ccc(N/N=C2\C(=O)N(Cc3cn(O[C@@H]4O[C@H](CO)[C@@H](O)[C@H](O)[C@H]4O)nn3)c3ccccc32)cc1	79.6	5.49	5.31	16.3	24.4
CC(=O)C[C@H]1O[C@@H](On2cc(CN3C(=O)/C(=N\Nc4ccc(F)cc4)c4ccccc43)nn2)[C@H](OC(C)=O)[C@@H](OC(C)=O)[C@H]1OC(C)=O	78.6	5.61	5.52	26.2	32.2
CC(=O)C[C@H]1O[C@@H](On2cc(CN3C(=O)/C(=N\Nc4cccc(Cl)c4)c4ccccc43)nn2)[C@H](OC(C)=O)[C@@H](OC(C)=O)[C@@H]1OC(C)=O	117	5.40	5.06	13.4	29.4
CC1(C)O[C@H]2O[C@H](Cn3cc(CN4C(=O)C(=O)c5ccccc54)nn3)[C@H](O)[C@H]2O1	> 200	5.36	5.47	> 58.8	> 46.2
COc1ccc(N/N=C2\C(=O)N(Cc3cn(C[C@H]4O[C@@H]5OC(C)(C)O[C@@H]5[C@H]5OC(C)(C)O[C@H]54)nn3)c3ccccc32)cc1	105	5.79	5.64	46	64.2
CC(=O)C[C@H]1O[C@@H](On2cc(CN3C(=O)/C(=N\Nc4ccc(C#N)cc4)c4ccccc43)nn2)[C@H](OC(C)=O)[C@@H](OC(C)=O)[C@@H]1OC(C)=O	75.4	5.48	5.24	13.2	22.6
O=C1/C(=N\Nc2ccccc2)c2ccccc2N1Cc1cn(O[C@@H]2O[C@H](CO)[C@@H](O)[C@H](O)[C@H]2O)nn1	88.5	5.33	5.09	10.9	18.8
CC(=O)C[C@H]1O[C@@H](On2cc(CN3C(=O)C(=O)c4ccccc43)nn2)[C@H](OC(C)=O)[C@@H](OC(C)=O)[C@@H]1OC(C)=O	137	5.45	< 5.00	< 13.7	38.6
CC1(C)O[C@H]2[C@@H](O1)[C@@H](Cn1cc(CN3C(=O)/C(=N\Nc4ccccc4)c4ccccc43)nn1)O[C@@H]1OC(C)(C)O[C@@H]12	105	5.41	5.58	40.2	27.2
O=C1/C(=N\Nc2ccc(Br)cc2)c2ccccc2N1Cc1cn(O[C@@H]2O[C@H](CO)[C@H](O)[C@H](O)[C@H]2O)nn1	91.5	5.44	5.33	19.5	25.8
CC(=O)C[C@H]1O[C@@H](On2cc(CN3C(=O)/C(=N\Nc4ccc(Br)cc4)c4ccccc43)nn2)[C@H](OC(C)=O)[C@@H](OC(C)=O)[C@H]1OC(C)=O	83.4	5.68	5.54	28.6	39.9
CC1(C)O[C@H]2O[C@H](Cn3cc(CN4C(=O)/C(=N\Nc5cccc(Cl)c5)c5ccccc54)nn3)[C@H](O)[C@H]2O1	70	5.35	5.47	20.5	15.7
CC(=O)C[C@H]1O[C@@H](On2cc(CN3C(=O)/C(=N\Nc4ccc(Br)cc4)c4ccccc43)nn2)[C@H](OC(C)=O)[C@@H](OC(C)=O)[C@@H]1OC(C)=O	116	5.42	5.42	30.3	30.7
COc1ccc(N/N=C2\C(=O)N(Cc3cn(C[C@H]4O[C@@H]5OC(C)(C)O[C@@H]5[C@H]4O)nn3)c3ccccc32)cc1	74.5	5.42	5.48	22.7	19.6
CC1(C)O[C@H]2[C@@H](O1)[C@@H](Cn1cc(CN3C(=O)/C(=N\Nc4cccc(Cl)c4)c4ccccc43)nn1)O[C@@H]1OC(C)(C)O[C@@H]12	117	5.49	5.60	47	36.2
O=C1/C(=N\Nc2cccc(Cl)c2)c2ccccc2N1Cc1cn(O[C@@H]2O[C@H](CO)[C@@H](O)[C@H](O)[C@H]2O)nn1		5.17	5.12		
CCN(CC)CCCC(C)Nc1ccnc2cc(Cl)ccc12 (configuration not stated) [CHLOROQUINE]	> 500				
